Reference: patent US20260115250A1, “METHODS OF TREATING AGE-RELATED MACULAR DEGENERATION” (Character Biosciences, Inc., priority 2022, published 2026)
Peptide text beside a SMILES is read from it.

Assays:
ARPE-19 cells [1] = experiment: ARPE-19 cholesterol import (BODIPY-Cholesterol); assay type: cell-based, human; settings: ARPE-19, peptide:lipid complexes from 30 μM diluted 1:3, FIG. 16
Protocol: FIG. 12 and FIGS. 14A-14B illustrate the results of ARPE-19 cholesterol import testing. ARPE-19 cells were seeded on 96-well plates at 25,000 cells per well and grown to confluence. A 2× solution of 500 μM DMPC and 50 μM BODIPY-Cholesterol were prepared in serum free DMEM: F12. Peptides were diluted to 20 μM in serum free DMEM: F12 (a 2× solution). Peptides were added to lipid solution in equal parts (60 μL each) and were incubated for 1 hour at 37° C. ARPE-19 cells were serum starved in serum free DMEM: F12 for 1 hour at 37° C. Peptide: Lipid complexes (100 μL total volume per well) were transferred to ARPE-19 cells for 2 hours at 37° C. Cells were washed, fixed, and intracellular fluorescence was read on Promega GloMax at 475 nm excitation, 500-550 emission. Fluorescence values were background corrected from no treatment conditions. Data are presented as mean+SD for two runs.
FIG. 15 illustrates ARPE-19 cholesterol import titration curves for a subset of the peptides. ARPE-19 cells were seeded on 96-well plates at 25,000 cells per well and grown to confluence. A 2× solution of 500 μM DMPC and 50 μM BODIPY-Cholesterol was prepared in serum free DMEM: F12. Peptides were diluted to 0.74-60 μM in serum free DMEM: F12 (2× solutions). Peptides were added to lipid solution in equal parts (60 μL each) to create final peptide concentrations of 0.37-30 µM and incubated for 1 hour at 37° C. ARPE-19 cells were serum starved in serum free DMEM: F12 for 1 hour at 37° C. Peptide: Lipid complexes (100 μL total volume per well) were transferred to ARPE-19 cells for 2 hours at 37° C. Cells were washed, fixed, and intracellular fluorescence was read on Promega GloMax at 475 nm excitation, 500-550 emission. Fluorescence values were background corrected from no treatment conditions. […]
ARPE-19 cells were seeded on 96-well plates at 25,000 cells per well and grown to confluence. […] Cells were washed, fixed, and intracellular fluorescence was read on Promega GloMax at 475 nm excitation, 500-550 emission. Fluorescence values were background corrected from no treatment conditions. […]

HMC3 cells = experiment: HMC3 cholesterol efflux; assay type: cell-based, human; settings: for cholesterol efflux titration: HMC3, 0-100 μM peptide, LXR agonist; for cholesterol efflux in the presence of LXR agonist: HMC3, 20 μM peptide, 4 hours
Protocol: (§1) FIGS. 27A-27B and FIG. 28 illustrate HMC3 cholesterol efflux. Fully confluent 96-well plates of HMC3 cells were treated for 1 hour in serum-free EMEM containing 10 mM methyl-β-cyclodextrin, 100 μM cholesterol, and 25 μM BODIPY cholesterol. Cells were then washed and incubated overnight in serum free EMEM containing 1 μM LXR agonist GW3965, 2 μg/mL ACAT inhibitor, and 0.2% BSA (LXR Agonist treated), or serum-free EMEM containing 2 μg/mL ACAT inhibitor, and 0.2% BSA (Control). Cells were washed and incubated with 20 μM peptides diluted in serum-free Fluorobrite DMEM for 4 hours at 37° C. Media was transferred to a new 96-well plate and fresh serum-free Fluorobrite DMEM was placed on the cells. Media and cellular fluorescence were read on a Promega GloMax at 475 nm excitation, 500-550 emission. Fluorescence values were background corrected from no treatment conditions and percent efflux was calculated by the following equation: % efflux=(Media Fluorescence values)/(Media+Cell Fluorescence values). Data are presented as mean+SD over two runs per peptide.
as §1, with “FIGS. 30A-30J show” for “FIGS. 27A-27B and FIG. 28 illustrate”, “cholesterol efflux titration curves for the indicated peptides.” for “cholesterol efflux.”, “μM” for “μM LXR agonist”, “or serum free” for “or serum-free”, “with 0-100” for “with 20”, “peptides serially” for “peptides”

[2] = DMPC solubility titration, 1 mM DMPC; assay type: biochemical; settings: 3.16-100 μM peptides, 15 minutes
Protocol: FIGS. 4A-4B illustrate a screening assay based on DMPC solubility, measured by reducing turbidity of DMPC liposome solutions, for a subset of the peptides in FIGS. 1B-1I. FIGS. 4A-4B illustrate DMPC solubility titration curves. Peptide stocks were diluted to 200 μM in H2O (a 2× solution) and serially diluted in H2O over 4 concentrations, then 50 μL of peptide solutions were distributed in triplicate into 96-well plates. A 2 mM solution of 1,2-dimyristoyl-sn-glycero-3-phosphocholine (DMPC) in H2O was prepared, and using a multichannel pipet, 50 μL DMPC solution was rapidly added to the plate. Peptide and lipid solutions were incubated at room temperature for 15 minutes with final concentrations of 3.16-100 μM peptides and 1 mM DMPC. After 15 minutes, absorbance was read on a plate reader at 405 nm. […] Data are presented as mean+SD over two runs. Non-linear regression was used to calculate EC50 values.

[3] = DMPC solubility assay, 0.5 mM DMPC (turbidity reduction); assay type: biochemical; settings: FIGS. 2A-2D and 3A-3C
How it was run: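 Peptides (100 μM final, or 3.16-100 μM for titrations) incubated with 0.5 mM DMPC in water for 15 minutes at room temperature. Turbidity read as absorbance at 405 nm; EC50 from non-linear regression, mean+SD over two runs.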

ARPE-19 cells [4] = experiment: ARPE-19 cell viability assay (Cell Titer Glo); assay type: cell-based, human; settings: 100 μM peptide, 1.5 hours
Protocol: ARPE-19 cells were seeded in 96-well plates at 25,000 cells/well and allowed to adhere to the plate surface for at least 24 hours. Peptides were diluted in serum-free DMEM: F12 to a final concentration of 100 μM. Cells were washed, then incubated in 100 μM peptide solution for 1.5 hours at 37° C. Plates were brought to room temperature for 30 minutes, then washed with DPBS. Cells were incubated in a 1:1 mixture of DPBS and Cell Titer Glo 2.0 Reagent for 10 minutes at room temperature, then cell luminescence was read on a plate reader. Viability values were background corrected, and 0% viability is determined by luminescence values of cells treated with 1% Triton-X-100. Data are presented as mean+SD over two separate runs.

LDLR = LDLR (Homo sapiens, UniProt P01130); experiment: KD, Peptide (μM)
Sequence of LDLR (P01130 22-860 limits assumed): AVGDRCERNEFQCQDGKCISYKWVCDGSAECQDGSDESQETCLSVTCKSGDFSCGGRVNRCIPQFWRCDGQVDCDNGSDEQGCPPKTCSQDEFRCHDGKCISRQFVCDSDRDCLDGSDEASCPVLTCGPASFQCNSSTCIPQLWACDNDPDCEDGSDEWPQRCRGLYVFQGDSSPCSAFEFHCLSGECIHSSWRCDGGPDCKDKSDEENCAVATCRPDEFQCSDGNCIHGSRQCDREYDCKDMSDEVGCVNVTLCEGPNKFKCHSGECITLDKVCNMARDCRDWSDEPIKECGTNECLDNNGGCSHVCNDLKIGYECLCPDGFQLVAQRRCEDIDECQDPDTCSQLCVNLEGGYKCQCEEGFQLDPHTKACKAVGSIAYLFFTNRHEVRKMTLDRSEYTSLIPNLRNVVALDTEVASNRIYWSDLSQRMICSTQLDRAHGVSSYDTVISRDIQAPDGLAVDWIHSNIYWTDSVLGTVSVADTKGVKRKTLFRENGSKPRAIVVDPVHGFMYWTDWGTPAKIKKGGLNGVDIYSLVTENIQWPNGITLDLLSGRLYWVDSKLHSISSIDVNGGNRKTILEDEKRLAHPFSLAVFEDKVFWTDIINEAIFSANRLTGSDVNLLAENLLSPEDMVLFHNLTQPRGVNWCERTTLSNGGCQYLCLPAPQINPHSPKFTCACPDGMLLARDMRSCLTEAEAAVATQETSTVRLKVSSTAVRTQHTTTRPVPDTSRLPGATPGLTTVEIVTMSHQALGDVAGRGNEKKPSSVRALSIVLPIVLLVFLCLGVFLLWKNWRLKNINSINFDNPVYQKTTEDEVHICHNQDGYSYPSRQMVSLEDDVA
From the text: Table printed on a drawing sheet, FIG. 24B
Title: Buffer: HBS + 0.005% P20
Head of the field: KD, Peptide (μM)
The patent's description of the figure: FIGS. 24A-24B are tables showing the binding kinetics results of LDLR binding assays (SPR), lipid-dependent binding with a low-surfactant preparation as described herein for select peptides shown in FIG. 1A-1I.
First copying reader's note: Continued from FIG. 24A; KD values are LDLR binding by SPR for the peptide alone and for its DMPC lipid complex, with the error given in the same cell after ±.
Where the first naming reader finds the target: description_of_the_figure: FIGS. 24A-24B are tables showing the binding kinetics results of LDLR binding assays (SPR)

Row | EC50 [2] [µM] | Kd (LDLR) [µM] | Compound | cholesterol import titration (ARPE-19 cells [1]) | cholesterol efflux titration (HMC3 cells) | cholesterol efflux in the presence of LXR agonist (HMC3 cells) | DMPC solubilizing activity [3] | ARPE-19 cell viability (ARPE-19 cells [4])
1 | 15.8 |  | CC(C)C[C@H](NC(=O)[C@H](C)NC(=O)[C@H](CCCNC(=N)N)NC(=O)[C@H](Cc1ccccc1)NC(=O)[C@H](CCCNC(=N)N)NC(=O)[C@H](CCC(=O)O)NC(=O)[C@@H](N)Cc1c[nH]c2ccccc12)C(=O)N[C@@H](Cc1ccccc1)C(=O)N[C@@H](CCCCN)C(=O)N[C@@H](CCC(=O)O)C(=O)N[C@@H](CC(C)C)C(=O)N[C@@H](C)C(=O)N[C@@H](CC(=O)O)C(=O)N[C@@H](Cc1ccc(O)cc1)C(=O)N[C@@H](Cc1ccccc1)C(=O)N[C@@H](CCCNC(=N)N)C(=O)N[C@@H](CC(=O)O)C(=O)N[C@@H](C)C(=O)O [T-086] (H-WERFRALFKELADYFRDA-OH; N-terminus and C-terminus assumed) | not able to increase cholesterol import | concentration-dependent increase in cholesterol efflux | greater cholesterol efflux | significant activity | 
2 |  | 33.2 ± 37.7 | CC(C)C[C@H](NC(=O)[C@H](CCCNC(=N)N)NC(=O)[C@H](CC(=O)O)NC(=O)[C@@H](NC(=O)[C@H](CC(C)C)NC(=O)[C@H](CCCCN)NC(=O)[C@H](CC(=O)O)NC(=O)CNC(=O)[C@H](CC(=O)O)NC(=O)[C@H](CCCNC(=N)N)NC(=O)[C@H](CC(C)C)NC(=O)[C@H](CC(C)C)NC(=O)[C@H](CCCNC(=N)N)NC(=O)[C@H](CCCCN)NC(=O)[C@H](CCCNC(=N)N)NC(=O)[C@H](CC(C)C)NC(=O)[C@H](CCCCN)NC(=O)[C@H](CCCNC(=N)N)NC(=O)[C@H](CC(C)C)NC(=O)[C@@H](N)Cc1c[nH]cn1)C(C)C)C(=O)N[C@@H](C)C(=O)N[C@@H](CCC(=O)O)C(=O)N[C@@H](Cc1ccc(O)cc1)C(=O)N[C@H](C(=O)N[C@@H](C)C(=O)N[C@@H](CCCNC(=N)N)C(=O)N[C@@H](C)C(=O)N[C@@H](CCCCN)C(=O)N[C@@H](CCC(=O)O)C(=O)N[C@@H](C)C(=O)N[C@@H](Cc1ccccc1)C(=O)N[C@@H](CC(=O)O)C(=O)N[C@@H](CCCNC(=N)N)C(=O)O)C(C)C [T-077] (H-HLRKLRKRLLRDGDKLVDRLAEYVARAKEAFDR-OH) |  |  |  |  | substantial change in viability
3 |  | 4.27 ± 0.19 | CC(C)C[C@H](NC(=O)[C@H](Cc1c[nH]cn1)NC(=O)[C@H](CO)NC(=O)[C@H](C)NC(=O)[C@@H](N)CC(C)C)C(=O)N[C@@H](CCCNC(=N)N)C(=O)N[C@@H](CCCCN)C(=O)N[C@@H](CC(C)C)C(=O)N[C@@H](CCCNC(=N)N)C(=O)N[C@@H](CCCCN)C(=O)N[C@@H](CCCNC(=N)N)C(=O)N[C@@H](CC(C)C)C(=O)N[C@@H](CC(C)C)C(=O)N[C@@H](CCCNC(=N)N)C(=O)N[C@@H](CC(=O)O)C(=O)N[C@@H](C)C(=O)N[C@@H](CC(=O)O)C(=O)N[C@@H](CC(=O)O)C(=O)O [T-073] |  |  |  |  | 
4 | 16.1 |  | REFRALFKELADYFRDAW [T-084, therapeutic peptide] |  | concentration-dependent increase in cholesterol efflux | greater cholesterol efflux |  | 
